Laboratory results taken from patent US4490388A, “Amidine compound and anticomplement agent comprising same” (Torii & Co., Ltd., priority 1981, dated 1984).
Where two headings read alike, the source gives them in different places.

Key:
complement = assay: Inhibition of complement mediated hemolysis; format: cell-based; details: read-out: Inhibition of complement mediated hemolysis (%)
Procedure: The complement mediated hemolysis is widely used as a means to determine the titration of complement. The principle of this method is based on the fact that hemolysis is caused by the activation of complement, when the latter is added to a complex (immune complex) of erythrocytes and the autibody thereof. The degree of hemolysis varies in proportion to the amount of complement added. Therefore, when a known amount of complement admixed with a C1 esterase inhibitor is used, the hemolysis must be suppressed in proportion to the inhibitory activity.
The anti-C1 esterase (C1r, C1s) activity was determined according to the method of Okamura et al. [K. Okamura, M. Muramatsu and B. Fujii, Biochem. Biophys. […] The inhibition of complement mediated hemolysis was determined according to the method of Baker et al. [B. R. Baker and E. H. Erickson, J. Med. Chem., 12, 408-414 (1969)].

Trypsin = target: T1, Trypsin (Bos taurus, UniProt P00760); assay: Anti-trypsin activity (hydrolysis of TAME); format: biochemical; details: molar concentration inhibiting 50% of TAME hydrolysis; read-out: id50, Trypsin
T1 sequence (P00760 24-246): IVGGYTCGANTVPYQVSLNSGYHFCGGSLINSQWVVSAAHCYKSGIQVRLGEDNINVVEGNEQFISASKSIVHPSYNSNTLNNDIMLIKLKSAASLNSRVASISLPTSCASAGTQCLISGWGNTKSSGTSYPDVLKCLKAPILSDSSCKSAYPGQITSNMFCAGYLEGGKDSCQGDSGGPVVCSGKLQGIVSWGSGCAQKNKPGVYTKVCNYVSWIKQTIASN
Procedure: (§1) The anti-trypsin, anti-plasmin, anti-kallikrein and anti-thrombin activities were determined according to the method of Muramatsu et al. [M. Muramatsu, T. Onishi, S. Makino, Y. Hayashi and S. Fujii, J. of Biochem., 58, 214 (1965)]. The data summarized in Table 1 are expressed in terms of molar concentration (id50) of the test compound which inhibits 50% of the activity of each enzyme to hydrolyze TAME (tosylarginine methyl ester). The compound No. corresponds to the compound number shown in Examples.

Plasmin = Plasmin (Homo sapiens, UniProt P00747); assay: Anti-plasmin activity (hydrolysis of TAME); format: biochemical; details: molar concentration inhibiting 50% of TAME hydrolysis; read-out: id50, Plasmin
Plasmin, sequence (P00747 581-810 limits assumed): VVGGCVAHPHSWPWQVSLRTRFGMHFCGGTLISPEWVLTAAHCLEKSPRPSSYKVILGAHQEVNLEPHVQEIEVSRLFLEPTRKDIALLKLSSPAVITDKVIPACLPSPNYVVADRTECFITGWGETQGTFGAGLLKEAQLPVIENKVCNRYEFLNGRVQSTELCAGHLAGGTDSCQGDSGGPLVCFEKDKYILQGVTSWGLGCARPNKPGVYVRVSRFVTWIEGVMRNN
Plasmin, sequence (P00747 97-580 partner limits assumed): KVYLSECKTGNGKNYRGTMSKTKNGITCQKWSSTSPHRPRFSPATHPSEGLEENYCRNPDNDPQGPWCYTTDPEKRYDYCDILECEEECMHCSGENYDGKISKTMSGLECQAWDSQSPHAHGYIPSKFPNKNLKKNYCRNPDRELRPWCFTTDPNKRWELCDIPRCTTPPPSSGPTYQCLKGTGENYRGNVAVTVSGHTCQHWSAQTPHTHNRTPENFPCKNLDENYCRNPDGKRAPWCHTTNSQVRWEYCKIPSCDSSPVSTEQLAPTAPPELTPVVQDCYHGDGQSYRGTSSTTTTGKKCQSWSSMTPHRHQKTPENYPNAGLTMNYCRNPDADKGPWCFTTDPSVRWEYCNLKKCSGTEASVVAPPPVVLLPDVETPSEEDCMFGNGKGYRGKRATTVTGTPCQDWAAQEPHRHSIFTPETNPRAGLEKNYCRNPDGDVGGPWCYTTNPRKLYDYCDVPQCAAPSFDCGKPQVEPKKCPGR
Procedure: as §1

Thrombin = Thrombin (Bos taurus, UniProt P00735); assay: Anti-thrombin activity (hydrolysis of TAME); format: biochemical
Procedure: as §1

C1r = target: T2, C1r (Homo sapiens, UniProt P00736); assay: Anti-C1 esterase activity, C1r (hydrolysis of AAME); format: biochemical; details: for inhibition at 10 µM: at 1×10^-5 M, read-out: Anti-C1 activity, C1r percent inhibition; for IC50: molar concentration inhibiting 50% of AAME hydrolysis, read-out: Anti-C1 activity, C1r id50
T2 sequence (P00736 464-705 limits assumed): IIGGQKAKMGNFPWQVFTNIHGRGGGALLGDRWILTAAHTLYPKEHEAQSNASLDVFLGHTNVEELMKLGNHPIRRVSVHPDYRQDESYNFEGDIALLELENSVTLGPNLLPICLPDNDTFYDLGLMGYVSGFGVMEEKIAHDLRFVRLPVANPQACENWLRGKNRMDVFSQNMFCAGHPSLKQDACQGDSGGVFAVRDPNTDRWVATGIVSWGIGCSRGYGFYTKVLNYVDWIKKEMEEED
T2 sequence (P00736 18-463 partner limits assumed): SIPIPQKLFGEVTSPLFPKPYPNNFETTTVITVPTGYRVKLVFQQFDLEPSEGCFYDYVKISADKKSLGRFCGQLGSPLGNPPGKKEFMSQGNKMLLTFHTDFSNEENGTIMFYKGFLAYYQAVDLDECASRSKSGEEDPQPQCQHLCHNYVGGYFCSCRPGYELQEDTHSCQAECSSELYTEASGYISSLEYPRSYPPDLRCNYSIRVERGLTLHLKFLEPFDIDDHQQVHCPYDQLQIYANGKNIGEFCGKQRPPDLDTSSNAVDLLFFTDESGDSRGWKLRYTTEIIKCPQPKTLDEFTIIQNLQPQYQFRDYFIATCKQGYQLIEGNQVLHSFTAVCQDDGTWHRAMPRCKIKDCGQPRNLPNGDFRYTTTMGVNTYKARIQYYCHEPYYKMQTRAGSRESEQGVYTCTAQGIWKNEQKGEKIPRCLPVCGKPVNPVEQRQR
Procedure: The anti-C1 esterase (C1r, C1s) activity was determined according to the method of Okamura et al. [K. Okamura, M. Muramatsu and B. Fujii, Biochem. Biophys. […] The figures in Table 2 have the following meanings:
C1r: Molar concentration of the test compound which inhibits 50% of the ability of C1r to hydrolyse AAME (acetylarginin methyl ester) (id50).

| Structure (SMILES) | inhibition at 10 µM (complement; 1 × 10^-5 M) | inhibition at 1 µM (complement; 1 × 10^-6 M) | inhibition at 0.1 µM (complement) | inhibition at 100 µM (complement) | inhibition at 100 µM (complement; 1 × 10^-4 M) | inhibition at 0.1 µM (complement; 1 × 10^-7 M) | inhibition at 1 µM (complement) | IC50 (Trypsin) | IC50 (Plasmin) | IC50 (Thrombin) | inhibition at 10 µM (C1r) | IC50 (C1r) | inhibition at 10 µM (complement) |
| --- | --- | --- | --- | --- | --- | --- | --- | --- | --- | --- | --- | --- | --- |
| CC(=O)Oc1ccc(C=CC(=N)N)cc1 [Compound 1, 4-(β-amidinoethenyl)phenyl acetate] | 71% | 64% | 10% | 99% |  |  |  |  |  |  |  |  |  |
| CC(C)CC(=O)Oc1ccc(C=CC(=N)N)cc1 [Compound 2, 4-(β-amidinoethenyl)phenyl isovalerate] | 90% |  |  |  | 99% | 8% | 30% |  |  |  |  |  |  |
| CCCCCCC(=O)Oc1ccc(C=CC(=N)N)cc1 [Compound 3] | 75% |  |  | 98% |  | 0% |  | > 10 µM | > 10 µM | > 10 µM | 28% |  |  |
| CC=CC=CC(=O)Oc1ccc(C=CC(=N)N)cc1 [Compound 4] | 99% |  | 12% | 100% |  |  | 86% | 0.4 µM | 0.9 µM |  |  | 5 µM |  |
| N=C(N)C=Cc1ccc(OC(=O)C2CC2)cc1 [Compound 5, 4-(β-amidinoethenyl)phenyl cyclopropanecarboxylate] | 100% | 81% |  |  | 100% | 16% |  | 6 µM | 2 µM |  |  | 2 µM |  |
| N=C(N)C=Cc1ccc(OC(=O)C2CCCCC2)cc1 [Compound 6] | 93% | 14% |  |  | 99% | 0% |  |  |  |  |  |  |  |
| N=C(N)C=Cc1ccc(OC(=O)CCCCCNC(=O)OCc2ccccc2)cc1 [Compound 7, 4-(β-amidinoethenyl)phenyl 6-benzyloxycarbonylaminocaproate] | 64% | 13% |  |  | 98% | 14% |  | 7 µM | 5 µM | > 10 µM | 31% |  |  |
| N=C(N)C=Cc1ccc(OC(=O)CCCCCN)cc1 [Compound 8, 4-(β-amidinoethenyl)phenyl 6-aminohexanoate] |  | 9% |  |  | 27% | 0% |  | 2 µM | > 10 µM | > 10 µM |  | > 10 µM | 15% |
| N=C(N)C=Cc1ccc(OC(=O)CCCc2ccccc2)cc1 [Compound 16, 4-(β-amidinoethenyl)phenyl 4-phenylbutyrate] | 34% | 0% |  | 96% |  | 0% |  |  |  |  |  |  |  |
| N=C(N)C=Cc1ccc(OC(=O)C=Cc2ccccc2)cc1 [Compound 17, 4-(β-amidinoethenyl)phenyl cinnamate] | 97% |  |  |  | 93% | 58% | 83% |  |  |  |  |  |  |
| Cc1ccccc1C(=O)Oc1ccc(C=CC(=N)N)cc1 [Compound 18] | 38% | 12% |  |  | 91% | 0% |  |  |  |  |  |  |  |
| Cc1cccc(C(=O)Oc2ccc(C=CC(=N)N)cc2)c1 [Compound 19] | 98% | 65% | 37% |  | 95% |  |  |  |  |  |  |  |  |
| Cc1ccc(C(=O)Oc2ccc(C=CC(=N)N)cc2)cc1C [Compound 21] |  | 37% |  |  | 87% | 22% |  |  |  |  |  |  | 88% |
| COc1ccc(C(=O)Oc2ccc(C=CC(=N)N)cc2)cc1 [Compound 23] | 99% | 94% |  |  | 98% | 42% |  |  |  |  |  |  |  |
| COc1ccc(C(=O)Oc2ccc(C=CC(=N)N)cc2)cc1OC [Compound 24] | 20% | 8% |  |  | 76% | 0% |  |  |  |  |  |  |  |
| COc1ccc(CCC(=O)Oc2ccc(C=CC(=N)N)cc2)cc1 [Compound 25] | 0% | 0% |  |  | 62% | 0% |  |  |  |  |  |  |  |
| N=C(N)C=Cc1ccc(OC(=O)c2ccc3c(c2)OCO3)cc1 [Compound 27] | 99% | 88% |  |  | 100% | 44% |  |  |  |  |  |  |  |
| COC(=O)c1ccc(C(=O)Oc2ccc(C=CC(=N)N)cc2)cc1 [Compound 29] | 93% | 57% |  |  | 98% | 25% |  |  |  |  |  |  |  |
| CC(=O)Nc1ccc(C(=O)Oc2ccc(C=CC(=N)N)cc2)cc1 [Compound 31] | 91% | 65% |  |  | 98% | 25% |  |  |  |  |  |  |  |
| N=C(N)C=Cc1ccc(OC(=O)c2ccc(CNC(=O)OCc3ccccc3)cc2)cc1 [Compound 33] |  | 29% |  | 92% |  | 7% |  |  |  |  |  |  | 89% |
| CCC(=Cc1ccc(NC(=N)N)cc1)C(=O)Oc1ccc(C=CC(=N)N)cc1 [Compound 36] |  | 8% |  |  | 93% | 0% |  | 5 µM | > 10 µM | 5 µM |  |  | 40% |
| N=C(N)C=Cc1ccc(OC(=O)c2ccc([N+](=O)[O-])cc2)cc1 [Compound 37] | 99% | 95% |  |  | 100% | 94% |  |  |  |  |  |  |  |
| N=C(N)C=Cc1ccc(OC(=O)CCCc2ccc([N+](=O)[O-])cc2)cc1 [Compound 38] | 76% | 27% |  |  | 98% | 7% |  |  |  |  |  |  |  |
| N=C(N)C=Cc1ccc(OC(=O)C=Cc2ccccc2Cl)cc1 [Compound 40] |  | 0% |  |  | 15% | 0% |  |  |  |  |  |  | 3% |
